{"source": "patent US5856347A", "about": "“Antibacterial preparation or bactericide comprising 2-aminothiazole derivative and/or salt thereof” (Hisamitsu Pharmaceutical Co., Inc., priority 1994, dated 1999)", "format_in_all_cases": "cell-based", "key": {"[1]": {"tested_on": "Staphylococcus epidermidis: IFO 12993", "test": "Bactericidal activity against Staphylococcus epidermidis: IFO 12993 (MCC)", "details": "S. epidermidis IFO 12993, 37° C., 18 to 20 hr, bactericidal (Table 9)", "protocol": "(§1) Bactericidal Activity Against Gram-Positive Bacteria\n(§2) One platinum loop of each test strain on a slant culture medium was inoculated into 10 ml of each growing medium (for aerobic bacteria: Trypto-Soya Broth manufactured by Nussui Pharmaceutical Co., Ltd., for anaerobic bacteria: GAM Broth manufactured by Nussui Pharmaceutical Co., Ltd.) and cultured at 37° C. for 18 to 20 hr. The thus obtained cultures were each diluted to obtain suspensions of about 10^7 cells/ml which were later used as a bacteria suspension for inoculation.\n(§3) About 10 mg of each sample were weighed out and dissolved in such an amount of DMSO (dimethylsulfoxide) as to obtain solutions having a concentration of 10 mg/ml.\n(§4) The sample solutions thus prepared were each added to each liquid medium (for aerobic bacteria: broth for determination of sensitivity, manufactured by Nussui Pharmaceutical Co., Ltd., for anaerobic bacteria: GAM Broth manufactured by Nussui Pharmaceutical Co., Ltd.) to obtain sample-containing medium solutions having a concentration of 128 μg/ml. […]\n(§5) 5 μl of each bacteria suspension for inoculation were placed in each of the sample-containing liquid media so prepared, and the bacteria were cultured at 37° C. for 18 to 20 hr. […] The minimum concentrations of the samples, which have been judged to kill bacteria, are expressed as MCC (Minimum Cidal Concentration) in μg/ml. […]"}, "[2]": {"tested_on": "Staphylococcus epidermidis sensitive to GM", "test": "Antibacterial activity against GM-sensitive Staphylococcus epidermidis", "details": "S. epidermidis sensitive to GM, 37° C., 4 days", "protocol": "(§6) Antibacterial Activity Against GM-Sensitive and Tolerant Strains of Staphylococcus aureus and Staphylococcus epidermidis\n(§7) One platinum loop of each test strain on a slant culture medium was inoculated into 10 ml of a growing medium (Trypto-Soya Broth manufactured by Nussui Pharmaceutical Co., Ltd.) and cultured at 37° C. for 18 to 20 hr. The thus obtained cultures were each diluted to obtain suspensions of about 10^7 cells/ml which were later used as a bacteria suspension for inoculation.\n(§8) About 10 mg of compound No. 9 were weighed out and dissolved in such an amount of DMSO as to obtain a solution having a concentration of 10 mg/ml. Separately, about 400 mg of Gentamicin sulfate (GM) were weighed out and dissolved in distilled water to obtain a solution having a concentration of 409.6 mg/ml.\n(§9) Each of the sample solutions thus prepared was added to a liquid medium (broth for determination of sensitivity, manufactured by Nussui Pharmaceutical Co., Ltd.) to obtain a liquid medium containing compound No. 9 in a concentration of 128 μg/ml or GM in a concentration of 4096 μg/ml. Further, each sample-containing medium so obtained was subjected to stepwise two-fold dilutions on a microplate with wells each containing […] of the above medium (compound No. 9: 128 to 1 μg/ml, GM: 4096 to 1 μg/ml). […]"}, "[3]": {"tested_on": "Staphylococcus aureus: IFO 13276", "test": "Bactericidal activity against Staphylococcus aureus: IFO 13276 (MCC)", "details": "S. aureus IFO 13276, 37° C., 18 to 20 hr, bactericidal (Table 8)", "protocol": "as §1, §2, §3, §4, §5"}, "[4]": {"tested_on": "Bacillus subtilis: IFO 3134", "test": "Antibacterial activity against Bacillus subtilis: IFO 3134 (MIC)", "details": "Bacillus subtilis IFO 3134, 37° C., 18 to 20 hr", "protocol": "(§10) Antibacterial Activity Against Gram-positive Bacteria\n(§11) One platinum loop (oese) of a test strain on a slant culture medium was inoculated into 10 ml of each growing medium (for aerobic bacteria: Trypto-Soya Broth manufactured by Nussui Pharmaceutical Co., Ltd., for anaerobic bacteria: GAM Broth manufactured by Nussui Pharmaceutical Co., Ltd.) and cultured at. 37° C. for 18 to 20 hr. The cultures thus obtained were each diluted to obtain suspensions of about 10^7 cells/ml which were later used as a bacteria suspension for inoculation.\n(§12) About 10 mg of each sample were weighed out and dissolved in such an amount of DMSO (dimethylsulfoxide) as to obtain sample solutions having a concentration of 10 mg/ml.\n(§13) The sample solutions thus prepared were each added to each liquid medium (for aerobic bacteria: broth for determination of sensitivity, manufactured by Nussui Pharmaceutical Co., Ltd., for anaerobic bacteria: GAM Broth manufactured by Nussui Pharmaceutical Co., Ltd.) to obtain sample-containing medium solutions having a concentration of 128 μg/ml. Further, the thus obtained solutions were each subjected to progressive or stepwise two-fold dilutions on a microplate with wells each containing […] of the above medium (until various concentrations in a range from 128 down to 0.063 μg/ml were obtained). […]"}, "[5]": {"tested_on": "Staphylococcus aureus tolerant to GM", "test": "Antibacterial activity against GM-tolerant Staphylococcus aureus", "details": "S. aureus tolerant to GM", "protocol": "as §6, §7, §8, §9"}, "[6]": {"tested_on": "Streptococcus agalactiae: IID 1624", "test": "Antibacterial activity against Streptococcus agalactiae: IID 1624 (MIC)", "details": "Streptococcus agalactiae IID 1624, 37° C., 18 to 20 hr", "protocol": "as §10, §11, §12, §13"}, "[7]": {"tested_on": "Staphylococcus epidermidis tolerant to GM", "test": "Antibacterial activity against GM-tolerant Staphylococcus epidermidis", "details": "S. epidermidis tolerant to GM", "protocol": "as §6, §7, §8, §9"}, "[8]": {"tested_on": "Streptococcus pyogenes: IID 698", "test": "Antibacterial activity against Streptococcus pyogenes: IID 698 (MIC)", "details": "Streptococcus pyogenes IID 698, 37° C., 18 to 20 hr", "protocol": "as §10, §11, §12, §13"}, "[9]": {"tested_on": "Propionibacterium acnes: Clinical isolated No. 3", "test": "Bactericidal activity against Propionibacterium acnes: Clinical isolated No. 3 (MCC)", "details": "P. acnes clinical isolated No. 3, 37° C., 18 to 20 hr, bactericidal (Table 9)", "protocol": "as §1, §2, §3, §4, §5"}, "[10]": {"tested_on": "Staphylococcus aureus sensitive to GM", "test": "Antibacterial activity against GM-sensitive Staphylococcus aureus", "details": "S. aureus sensitive to GM, 37° C., 4 days", "protocol": "as §6, §7, §8, §9"}, "[11]": {"tested_on": "Staphylococcus aureus: IFO 13276", "test": "Antibacterial activity against Staphylococcus aureus: IFO 13276 (MIC, liquid dilution)", "details": "S. aureus IFO 13276, 37° C., 18 to 20 hr (Table 2)", "protocol": "as §10, §11, §12, §13"}, "[12]": {"tested_on": "Staphylococcus epidermidis: IFO 12993", "test": "Antibacterial activity against Staphylococcus epidermidis: IFO 12993 (MIC)", "details": "Staphylococcus epidermidis IFO 12993, 37° C., 18 to 20 hr", "protocol": "as §10, §11, §12, §13"}, "[13]": {"tested_on": "Staphylococcus epidermidis", "test": "Acquisition of tolerance in Staphylococcus epidermidis (serial passages)", "protocol": "(§14) Acquisition of Tolerance in Staphylococcus aureus and Staphylococcus epidermidis\nas §7, with “10^8” for “10^7”\n(§15) About 10 mg of compound No. 9 were weighed out and dissolved in such an amount of DMSO as to obtain a solution having a concentration of 12.8 mg/ml, after which the solution so obtained was subjected to stepwise two-fold dilutions with DMSO (12.8 to 0.1 mg/ml).\n(§16) Separately, about 400 mg of Gentamicin sulfate (GM) were weighed and dissolved in distilled water to obtain a solution having a concentration of 409.6 mg/ml, after which the solution so obtained was subjected to stepwise two-fold dilutions with distilled water to prepare control medicinal solutions for comparison (409.6 to 0.1 mg/ml).\n(§17) Each of the sample solutions thus obtained by the stepwise dilutions was added to a liquid medium (Trypto-Soya Broth manufactured by Nussui Pharmaceutical Co., Ltd.) in an amount of 0.01 volume thereof.\n(§18) Each of the bacteria suspensions for inoculation was added to each of the sample-containing liquid media so prepared in an amount of 0.01. volume (about 10^6 cells/ml) of the liquid medium, and the bacteria were cultured at 37° C. for 2 to 4 days. Thereafter, the growth of bacteria was observed."}, "[14]": {"tested_on": "Escherichia coli: IFO 3972", "test": "Antibacterial activity against Gram-negative bacteria, Escherichia coli: IFO 3972 (MIC)", "protocol": "Antibacterial Activity Against Gram-Negative Bacteria The procedure was performed in the same manner as Experiment Example 1."}, "Staphylococcus aureus": {"tested_on": "Staphylococcus aureus", "test": "Acquisition of tolerance in Staphylococcus aureus (serial passages)", "protocol": "as §14\nas §7, with “10^8” for “10^7”\nas §15, §16, §17, §18"}, "[15]": {"tested_on": "Propionibacterium acnes: Clinical isolated No. 3", "test": "Antibacterial activity against Propionibacterium acnes: Clinical isolated No. 3 (MIC)", "details": "Propionibacterium acnes clinical isolated No. 3, GAM Broth, 37° C., 18 to 20 hr", "protocol": "as §10, §11, §12, §13"}}, "data": [{"molecule": "Gentamicin sulfate [GM]", "values": [{"measurement": "MCC (Minimum Cidal Concentration), column head prints MIC", "setting": "[1]", "value": 64, "unit": "µg/mL"}, {"measurement": "MIC (Minimum Inhibitory Concentration)", "setting": "[2]", "value": 0.5, "unit": "µg/mL"}, {"measurement": "MCC (Minimum Cidal Concentration), column head prints MIC", "setting": "[3]", "value": 128, "unit": "µg/mL"}, {"measurement": "MIC (Minimum Inhibitory Concentration)", "setting": "[4]", "value": 0.25, "unit": "µg/mL"}, {"measurement": "MIC (Minimum Inhibitory Concentration)", "setting": "[5]; 37° C., 4 days", "value": 2048, "unit": "µg/mL"}, {"measurement": "MIC (Minimum Inhibitory Concentration)", "setting": "[6]", "value": 16, "unit": "µg/mL"}, {"measurement": "MIC (Minimum Inhibitory Concentration)", "setting": "[7]; 37° C., 4 days", "value": 1024, "unit": "µg/mL"}, {"measurement": "MIC (Minimum Inhibitory Concentration)", "setting": "[8]", "value": 2, "unit": "µg/mL"}, {"measurement": "MCC (Minimum Cidal Concentration), column head prints MIC", "setting": "[9]", "value": 64, "unit": "µg/mL"}, {"measurement": "MIC (Minimum Inhibitory Concentration)", "setting": "[10]", "value": 2, "unit": "µg/mL"}, {"measurement": "MIC (Minimum Inhibitory Concentration)", "setting": "[11]", "value": 2, "unit": "µg/mL"}, {"measurement": "MIC (Minimum Inhibitory Concentration)", "setting": "[12]", "value": 0.5, "unit": "µg/mL"}, {"measurement": "acquisition of tolerance", "setting": "[13]; 18 passages", "value": "highly induced the tolerance"}, {"measurement": "MIC after passages", "setting": "[13]; 18 passages in medium containing GM", "value": "about 1000 μg/ml"}, {"measurement": "MIC (Minimum Inhibitory Concentration)", "setting": "[14]", "value": 2, "unit": "µg/mL"}, {"measurement": "acquisition of tolerance", "setting": "Staphylococcus aureus; 10 passages", "value": "highly induced the tolerance"}, {"measurement": "MIC after passages", "setting": "Staphylococcus aureus; 10 passages in medium containing GM", "value": "about 1000 μg/ml"}, {"measurement": "MIC (Minimum Inhibitory Concentration)", "setting": "[15]", "value": 32, "unit": "µg/mL"}]}, {"molecule": "COc1ccc(-c2nc(NS(=O)(=O)C(F)(F)F)sc2-c2ccccc2)cc1", "note": "[compound 9]", "values": [{"measurement": "antibacterial activity and bactericidal activity compared with GM-sensitive strains", "setting": "[5]", "value": "equally powerful to those against the strains sensitive to Gentamicin sulfate (GM)"}, {"measurement": "antibacterial activity and bactericidal activity compared with GM-sensitive strains", "setting": "[7]", "value": "equally powerful to those against the strains sensitive to Gentamicin sulfate (GM)"}, {"measurement": "acquisition of tolerance", "setting": "[13]; 18 passages", "value": "did not induce the tolerance until 18 passages"}, {"measurement": "increase in MIC due to passages", "setting": "[13]; 18 passages", "value": "neither of the strains caused a significant increase in MIC"}, {"measurement": "acquisition of tolerance", "setting": "Staphylococcus aureus; 10 passages", "value": "did not induce bacterial tolerance until 10 passages"}, {"measurement": "increase in MIC due to passages", "setting": "Staphylococcus aureus; 10 passages", "value": "neither of the strains caused a significant increase in MIC"}]}]}
